Assay results taken from ChEMBL document CHEMBL2157967, “Chemotherapy of leishmaniasis. Part XI: synthesis and bioevaluation of novel isoxazole containing heteroretinoid and its amide derivatives” (2012).
Calls of active or inactive are those of the source. No cut-off for these calls is given here.

Test system: Leishmania donovani
Assay: Antileishmanial activity against Leishmania donovani MHOM/IN/80/Dd8 amastigotes infected in golden hamster assessed as inhibition of parasite growth at 50 mg/kg, ip for 5 days post infection measured on day 7 by Giemsa staining
Type: functional
Conditions: for inhibition in vivo at 50 mg/kg: Leishmania donovani, MHOM/IN/80/Dd8, ip, read-out: GI

Molecule	inhibition in vivo at 50 mg/kg (route intraperitoneal)	other results
CC1=CCCC(C)(C)C1/C=C/c1cc(C(=O)[N-]N)no1.[Na+] (stereo not given)		growth inhibition (GI) (route intraperitoneal): 70%
CCOC(=O)c1cc(/C=C/C2C(C)=CCCC2(C)C)on1 (stereo not given)	76%	
CC1=CCCC(C)(C)C1/C=C/c1cc(C(=O)N2CCOCC2)no1 (stereo not given)		growth inhibition (GI): inactive
CC1=CCCC(C)(C)C1/C=C/c1cc(C(=O)NO)no1 (stereo not given)	65%	
CC1=CCCC(C)(C)C1/C=C/c1cc(C(=O)NC2CCCCC2)no1 (stereo not given)	70%	
CC1=CCCC(C)(C)C1/C=C/c1cc(C(=O)Nc2ccc(Cl)cc2)no1 (stereo not given)	63%	
NC[C@@H]1O[C@H](O[C@H]2[C@@H](O)[C@H](O[C@@H]3[C@@H](O)[C@H](N)C[C@H](N)[C@H]3O[C@H]3O[C@H](CO)[C@@H](O)[C@H](O)[C@H]3N)O[C@@H]2CO)[C@H](N)[C@@H](O)[C@@H]1O [PAROMOMYCIN]	46.7%	
CCOC(=O)C(=O)CC(=O)/C=C/C1C(C)=CCCC1(C)C (stereo not given)		growth inhibition (GI): inactive
CC1=CCCC(C)(C)C1/C=C/c1cc(C(=O)O)no1 (stereo not given)	45%	
CC1=CCCC(C)(C)C1/C=C/c1cc(C(=O)N[O-])no1.[Na+] (stereo not given)		growth inhibition (GI) (route intraperitoneal): 71%
CC1=CCCC(C)(C)C1/C=C/c1cc(C(=O)Nc2ccccc2)no1 (stereo not given)	74%	
CC1=CCCC(C)(C)C1/C=C/c1cc(C(=O)NN)no1 (stereo not given)	50%	
CC1=CCCC(C)(C)C1/C=C/c1cc(C(=O)N2CCN(c3ccccc3)CC2)no1 (stereo not given)		growth inhibition (GI): inactive
COc1ccc(NC(=O)c2cc(/C=C/C3C(C)=CCCC3(C)C)on2)cc1 (stereo not given)	58%	
Sodium stibogluconate		growth inhibition (GI): 89%
